This assay concerns the target T1, Ba/F3 cell EGFR Exon20 ins NPH (Homo sapiens, UniProt P00533, INS773NPH).
T1 construct: expressed in transfected cells; host or cells: Ba/F3
In words: Ba/F3 cell proliferation suppression, EGFR Exon20 ins NPH. Format: cell-based. The note with it: GI50 class; Ba/F3 cell line with NPH inserted at Exon20 of EGFR; 72 hours. The method in brief: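 Growth suppression determined as GI50 following 72 h exposure across 12 concentrations up to 50 um, with viability by luminescent ATP assay (CellTiter-Glo).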
Regarding `C=CC(=O)Nc1cc(Nc2cc(N3OCC[C@@H]3c3ccc(F)c(F)c3)ncn2)c(OC)cc1N1CCC(N2CCC(N(C)C)CC2)CC1` [compound 546, N-(5-((6-((R)-3-(3,4-difluorophenyl)isoxazolidine-2-yl)pyrimidine-4-yl)amino)-2-(4-(dimethylamino)-[1,4'-bipiperidine]-1'-yl)-4-methoxyphenyl) acrylamide], the “Ba/F3 (NPH) Activity” value was “A (GI50 < 50 nM)”. Consider `C=CC(=O)Nc1cc(Nc2cc(N3OCC[C@H]3Cc3ccccc3)ncn2)c(OC)cc1N1CCN(C2CCOCC2)CC1` [compound 975, N-(5-((6-((R)-3-benzylisoxazolidine-2-yl)pyrimidine-4-yl)amino)-4-methoxy-2-(4-(tetrahydro-2H-pyran-4-yl)piperazine-1-yl)phenyl)acrylamide], for which the “Ba/F3 (NPH) Activity” value was “C (500 nM ≤ GI50 < 5000 nM)”.

Consider `C=CC(=O)Nc1cc(Nc2cc(N3OCC[C@@H]3c3cccc(OC)c3)ncn2)c(OC)cc1N1CCN(C)CC1` [Example 25, N-(4-methoxy-5-((6-((R)-3-(3-methoxyphenyl)isoxazolidine-2-yl)pyrimidine-4-yl)amino)-2-(4-methylpiperazine-1-yl)phenyl) acrylamide], for which the “Ba/F3 (NPH) Activity” value is “B (50 nM ≤ GI50 < 500 nM)”. In the case of `C=CC(=O)Nc1cc(Nc2cc(N3OCC[C@@H]3c3cccc(Cl)c3)ncn2)c(OC)cc1N1C[C@@H]2C[C@H]1CO2` [compound 466, N-(2-((1S,4S)-2-oxa-5-azabicyclo[2.2.1]heptane-5-yl)-5-((6-((R)-3-(3-chlorophenyl)isoxazolidine-2-yl)pyrimidine-4-yl)amino)-4-methoxyphenyl) acrylamide] it was “B (50 nM ≤ GI50 < 500 nM)”; in that of `C=CC(=O)Nc1cc(Nc2cc(N3OCC[C@@H]3c3cccc(Cl)c3)ncn2)c(OC)cc1N1CCC(N2CCOCC2)CC1` [compound 417, N-(5-((6-((R)-3-(3-chlorophenyl)isoxazolidine-2-yl)pyrimidine-4-yl)amino)-4-methoxy-2-(4-morpholinopiperidine-1-yl)phenyl) acrylamide], “A (GI50 < 50 nM)”. In the case of `C=CC(=O)Nc1cc(Nc2cc(N3OCC[C@@H]3c3ccc(Cl)cc3F)ncn2)c(OC)cc1N1CC[C@H](N2CCOCC2)C1` [compound 407, N-(5-((6-((R)-3-(4-chloro-2-fluorophenyl)isoxazolidine-2-yl)pyrimidine-4-yl)amino)-4-methoxy-2-((S)-3-morpholinopyrolidine-1-yl)phenyl)acrylamide] it was “B (50 nM ≤ GI50 < 500 nM)”; in that of `C=CC(=O)Nc1cc(Nc2cc(N3OCC[C@@H]3c3ccc(F)c(Cl)c3)ncn2)c(OC)cc1N1CC[C@@H](N(C)C)C1` [compound 756, N-(5-((6-((R)-3-(3-chloro-4-fluorophenyl)isoxazolidine-2-yl)pyrimidine-4-yl)amino)-2-((R)-3-(dimethylamino)pyrolidine-1-yl)-4-methoxyphenyl) acrylamide], “A (GI50 < 50 nM)”. In the case of `C=CC(=O)Nc1cc(Nc2cc(N3OCC[C@@H]3c3cccc(Cl)c3Cl)ncn2)c(OC)cc1N1C[C@@H]2C[C@H]1CO2` [compound 522, N-(2-((1S,4S)-2-oxa-5-azabicyclo[2.2.1]heptane-5-yl)-5-((6-((R)-3-(2,3-dichlorophenyl)isoxazolidine-2-yl)pyrimidine-4-yl)amino)-4-methoxyphenyl) acrylamide] it was “B (50 nM ≤ GI50 < 500 nM)”; in that of `C=CC(=O)Nc1cc(Nc2cc(N3OCC[C@@H]3Cc3cccc(Cl)c3F)ncn2)c(OC)cc1N(C)CCN(C)C` [compound 1016, N-(5-((6-((S)-3-(3-chloro-2-fluorobenzyl)isoxazolidine-2-yl)pyrimidine-4-yl)amino)-2-((2-(dimethylamino)ethyl)(methyl)amino)-4-methoxyphenyl) acrylamide], “A (GI50 < 50 nM)”; in that of `C=CC(=O)Nc1cc(Nc2cc(N3OCC[C@@H]3c3cccc(Cl)c3F)ncn2)c(OC)cc1N1CCC(N2CCN(C3CC3)CC2)CC1` [Example 62, N-(5-((6-((R)-3-(3-chloro-2-fluorophenyl)isoxazolidine-2-yl)pyrimidine-4-yl)amino)-2-(4-(4-cyclopropylpiperazine-1-yl)piperidine-1-yl)-4-methoxyphenyl) acrylamide], “A (GI50 < 50 nM)”.

For `C=CC(=O)Nc1cc(Nc2cc(N3OCC[C@@H]3c3cc(F)cc(F)c3)ncn2)c(OC)cc1N1CCC(N2CCN(C3COC3)CC2)CC1` [Example 79, N-(5-((6-((R)-3-(3,5-difluorophenyl)isoxazolidine-2-yl)pyrimidine-4-yl)amino)-4-methoxy-2-(4-(4-(oxetane-3-yl)piperazine-1-yl)piperidine-1-yl)phenyl)acrylamide], the “Ba/F3 (NPH) Activity” value is given as “A (GI50 < 50 nM)”. In the case of `C=CC(=O)Nc1cc(Nc2cc(N3OCC[C@@H]3c3ccc(F)c(Cl)c3)ncn2)c(OC)cc1N1CCN(C)CC1` [compound 702, N-(5-((6-((R)-3-(3-chloro-4-fluorophenyl)isoxazolidine-2-yl)pyrimidine-4-yl)amino)-4-methoxy-2-(4-methylpiperazine-1-yl)phenyl)acrylamide] it was “A (GI50 < 50 nM)”. With `C=CC(=O)Nc1cc(Nc2cc(N3OCC[C@@H]3c3cccc(Cl)c3)ncn2)c(OC)cc1N1CCN(C(C)=O)CC1` [compound 464, N-(2-(4-acetylpiperazine-1-yl)-5-((6-((R)-3-(3-chlorophenyl)isoxazolidine-2-yl)pyrimidine-4-yl)amino)-4-methoxyphenyl) acrylamide], the “Ba/F3 (NPH) Activity” value is “A (GI50 < 50 nM)”. In the case of `C=CC(=O)Nc1cc(Nc2cc(N3OCC[C@@H]3c3ccc4ccccc4c3)ncn2)c(OC)cc1N1CCC(N2CCN(C3CCC3)CC2)CC1` [Example 190, N-(2-(4-(4-cyclobutylpiperazine-1-yl)piperidine-1-yl)-4-methoxy-5-((6-((R)-3-(naphthalene-2-yl)isoxazolidine-2-yl)pyrimidine-4-yl)amino)phenyl)acrylamide] it was “B (50 nM ≤ GI50 < 500 nM)”; in that of `C=CC(=O)Nc1cc(Nc2cc(N3OCC[C@H]3c3c(F)cccc3F)ncn2)c(OC)cc1N1C[C@@H]2CCN(C)[C@@H]2C1` [compound 899, N-(5-((6-((S)-3-(2,6-difluorophenyl)isoxazolidine-2-yl)pyrimidine-4-yl)amino)-4-methoxy-2-((3aS,6aS)-1-methylhexahydropyrrolo [3,4-b]pyrrole-5(1H)-yl)phenyl) acrylamide], “C (500 nM ≤ GI50 < 5000 nM)”.

Turning to `C=CC(=O)Nc1cc(Nc2cc(N3OCC[C@@H]3c3cc(F)cc(F)c3)ncn2)c(OC)cc1N1CCC(N2CCN(C)CC2=O)CC1` [compound 722, N-(5-((6-((R)-3-(3,5-difluorophenyl)isoxazolidine-2-yl)pyrimidine-4-yl)amino)-4-methoxy-2-(4-(4-methyl-2-oxopiperazine-1-yl)piperidine-1-yl)phenyl)acrylamide], the “Ba/F3 (NPH) Activity” value is recorded as “B (50 nM ≤ GI50 < 500 nM)”.

On to `C=CC(=O)Nc1cc(Nc2cc(N3OCC[C@@H]3c3cccc(Cl)c3)ncn2)c(OC)cc1N1CCN(C2CC2)CC1` [compound 463, N-(5-((6-((R)-3-(3-chlorophenyl)isoxazolidine-2-yl)pyrimidine-4-yl)amino)-2-(4-cyclopropylpiperazine-1-yl)-4-methoxyphenyl) acrylamide], for which the “Ba/F3 (NPH) Activity” value was “B (50 nM ≤ GI50 < 500 nM)”.

The record behind these values is US12157730B2, “Heteroaryl derivative, method for producing same, and pharmaceutical composition comprising same as effective component” (VORONOI INC., priority 2019, dated 2024).
